Laboratory results: patent publication US12396996B2, “Compounds, pharmaceutical compositions, and methods of their use in reversing cancer chemoresistance” (priority 2019, dated 2025)

Key:
[1] = tested on: HMLE-TWIST cells; assay: E-cadherin (E-cad) level after chaetocin pulse; assay type: cell-based, human; conditions: 80 nM or 200 nM for 15 hours, then 1, 2, 4 days chaetocin-free
Protocol: Levels of an epithelial marker, E-cadherin (E-cad) were assayed at 15H, 1 D, 2D, and 4D after chaetocin treatment and the fraction of E-cad positive cells was quantified.
To molecularly test whether chaetocin treatment converts mesenchymal cells into epithelial cells, HMLE-TWIST cells were treated with a pulse of chaetocin for 15 hours (15H), washed and then incubated in chaetocin-free media for 1 day (1D), 2 days (2D), and 4 days (4D). Levels of the ubiquitous epithelial marker E-cadherin (E-cad) was assayed using Western blots throughout the experiment.

[2] = tested on: HMLE-TWIST cells; assay: RNA-seq after two days of chaetocin and two days after removal (Enrichr); assay type: cell-based, human; conditions: versus DMSO, cells found to have mycoplasma infection
Protocol: Briefly, HMLE-TWIST cells were treated for two days with increasing doses of chaetocin (0.1, 0.15, 0.2, 0.5 uM). The cells were then washed and incubated for an additional 2 days in chaetocin-free media. Cells were collected before chaetocin treatment and at the 2-day and 4-day timepoints. Total RNA was extracted and subjected to deep sequencing. All chaetocin-treated transcriptomes were compared to cells treated with DMSO for 2 and 4 days which served as controls.
Using FACS (see FIGS. 3A-3X), it was shown that mesenchymal, TIC-rich HMLE-TWIST cells treated with increasing doses of chaetocin lose their mesenchymal properties. […] All transcriptomes were compared to the corresponding DMSO-treated controls.
The results for two representative chaetocin concentrations ([…]) are shown. Other concentrations produced a highly similar list of pathways. Only pathways whose enrichment is associated with an adjusted p value of less than 0.05 are indicated. Pathways listed in italicized font are those which have a known role in promoting the formation of the mesenchymal state in published literature. The pathways marked with an asterisk in tables above are those having known roles as tumor suppressors.
The results for two representative chaetocin concentrations ([…]) are shown. Other concentrations produced a highly similar list of pathways. […]

[3] = tested on: HMLE-SNAIL cells; assay: CD44/CD24 FACS analysis; assay type: cell-based, human; conditions: 1 μM for two days
Description: The y- and the x-axes represent fluorescence intensity of CD24 and CD44 cell surface markers, respectively. In this cell line, high CD44 and low CD24 expression indicate TIC cell populations. Cells that express CD24 are considered non-TICs.
Cell surface markers can be used to identify mesenchymal, TIC cells. In breast cancer, the presence of CD44 and absence of CD24 markers are indicators of TICs. Specifically, cells expressing high levels of CD44 and no expression of CD24 are considered TICs, whereas cells expressing CD24 are considered non-TICs. HMLE cells display these cell surface markers upon overexpression of SNAIL or TWIST, which turns on the EMT transcriptional program and promotes a mesenchymal TIC state in cancer cells. To determine whether chaetocin treatment alters the mesenchymal phenotype of TICs, these markers were used to track the fate of HMLE-SNAIL cells following chaetocin treatment (1 μM) using fluorescence-activated cell sorting (FACS) analysis. FIGS. 3A-3B show a heat map plot of FACS results under control conditions (FIG. 3A) and following chaetocin treatment (FIG. 3B). The y-axis corresponds to CD24 fluorescence intensity and the x-axis corresponds to CD44 fluorescence intensity.

[4] = tested on: TICs (cancer stem/progenitor cells); assay: Tumorsphere assay; assay type: cell-based; conditions: 0, 30, 80 nM; 14 days of culture
Description: FIGS. 1F-1I show the results of a 3-D tumor spheroid assay formed by the chemotherapy-resistant breast cancer cell line, HMLE-SNAIL. […] Tumor spheroids are a model of real in vivo tumors, as they form a 3-D cell mass in which the hypoxic and often nutrient depleted microenvironment at the center of the tumor is enriched with mesenchymal, chemotherapy-resistant TIC cells. […] By staining spheroids with Sytox, which stains dead cells green, and DAPI, which stains the nuclei of all cells (living or dead), total fraction of dead cells is calculated. Also, the location of dead cells within the sphere is visualized with Sytox (green) staining. The results of FIGS. 1F-1I indicate that chaetocin a selective and potent killer of inner cells of the spheroids, enriched with mesenchymal, chemotherapy-resistant TIC cells, compared to other compounds tested. FIGS. 1J-1K show the results of a tumorsphere assay performed with TICs grown on serum-free, non-adherent culture conditions. […] The results of FIGS. 1J-1K indicate that chaetocin is effective in eliminating TICs in a dose dependent-manner.
To further determine the effect of chaetocin on eliminating TICs, a tumorsphere assay was performed on cancer cells under increasing concentrations of chaetocin. A tumorsphere is a solid spherical formation developed from the proliferation of one cancer stem/progenitor cell. […]

[5] = tested on: MDA-MB-231 cells; assay: Cleaved caspase 3 apoptosis assay; assay type: cell-based, human; conditions: chaetocin 0, 100, 200 nM; compared with MDA-MB-468
Description: (§1) FIGS. 1A-1K are a series of figures showing sensitivity of tumor initiating cell (TICs)-rich, chemoresistant breast cancer and clear cell renal cell carcinoma cell lines to chaetocin compared to non-cancerous epithelial or isogenic cancerous epithelial, TIC-deplete, chemosensitive breast cancer and clear cell renal cell carcinoma cell lines. […] The data presented in FIGS. 1A and 1B indicate that at lower doses especially chaetocin specifically induces apoptosis of mesenchymal, TIC-rich, chemotherapy-resistant breast cancer cell lines compared to the epithelial, non-TIC-rich and chemotherapy-responsive cell-line.
(§2) To determine whether constitutive heterochromatin proteins are similarly required for the development of […] in cancer, the efficacy of a heterochromatin inhibitor, which selectively represses the activities of two proteins critical for constitutive heterochromatin formation, namely suppressor of variegation 3-9 homolog 1 (Suv39H1) and suppressor of variegation 3-9 homolog 2 (Suv39H2), was tested in human cells, using 2-D, spheroid and tumorsphere assays. To determine the sensitivity of well-established mesenchymal and epithelial cancer cells to a heterochromatin inhibitor, chaetocin, the degree of apoptotic cell death was measured in two cancer cell lines, MDA-MB-231 and MDA-MB-468. […]

[6] = tested on: MDA-MB-468 cells; assay: Cleaved caspase 3 apoptosis assay; assay type: cell-based, human; conditions: chaetocin 0, 400, 800 nM; compared with MDA-MB-231
Description: as §1, §2

CN1C(=O)[C@@]23C[C@]4([C@]56C[C@@]78SS[C@](CO)(C(=O)N7[C@H]5Nc5ccccc56)N(C)C8=O)c5ccccc5N[C@@H]4N2C(=O)[C@@]1(CO)SS3 [chaetocin]
E-cadherin level (mesenchymal to epithelial conversion) [1]: stable epigenetic change in cell phenotype converting mesenchymal cancer cells into epithelial ones | pathways changed after two days of treatment ([2]; 0.1, 0.15, 0.2, 0.5 uM for two days): repression of several mesenchymal pathways and an increase in DNA repair and two important tumor suppressing pathways, p53 and Rb | persistence of transcriptional changes ([2]; 2 days after chaetocin removal): transcriptional changes persist after chaetocin removal | CD44/CD24 phenotype (TIC to non-TIC) [3]: reprograms TICs into a non-TIC phenotype | number of tumorspheres per well [4]: can eliminate TICs at low doses | apoptosis (cleaved caspase 3) sensitivity [5]: more sensitive to chaetocin compared to the non-TIC, MDA-MB-468 cells | apoptosis (cleaved caspase 3) sensitivity [6]: increased sensitivity to chaetocin as compared to MDA-MB-231 cells
